The values below are quoted from earlier work in US6358541B1, “Topical preparation for the treatment of hair loss” (priority 2000, dated 2002).

Molecules are shown by their SMILES.

For series [1] the following is noted: topical.
The conditions of series [2]: 0.1 wt. % adapalene gel, versus petroleum jelly control.
A further series has as its system comedones. The settings on record: topical.
For series [3] the following is noted: vapor; OSHA list 1990.

On to `O=C(O)CCCCCCCC(=O)O` [Azeleic acid, 1,7 heptanedicarboxylic acid], for which the “irritation relative to tretinoin (retinoic acid)” value in series [1] is “less irritation than tretinoin”. In the case of `COc1ccc(-c2ccc3cc(C(=O)O)ccc3c2)cc1C12CC3CC(CC(C3)C1)C2` [adapalene, Adapalene], the irritative potential entry in series [2] is reported as “low irritative potential only slightly greater than a petroleum jelly control”. Moreover, the comedolytic activity result with comedones was “significant comedolytic activity”.

As to `[O][Cl+][O-]` [chlorine dioxide], the “Permissible Exposure Level (PEL)” value in series [3] is reported as 0.1 ppm. Regarding `CC1=C(/C=C/C(C)=C/C=C/C(C)=C/C=O)C(C)(C)CCC1` [retinaldehyde, Retinaldehyde], the “irritation relative to tretinoin (retinoic acid)” value in series [1] was “significantly less irritating than retinoic acid”.
